Values quoted from earlier work in patent US5977138A, “Ether muscarinic antagonists” (Schering Corporation, priority 1997, dated 1999).

System: m2 muscarinic receptor
Conditions: Baumgold et al., Eur. J. of Pharmacol., 251 (1994) 315-317

## C[C@H]1CC[C@@H]2N(C1)C[C@H]1[C@@H]3C[C@H]4[C@@H](CC(=O)[C@H]5C[C@@H](Cl)CC[C@@]54C)[C@@H]3CC[C@H]1[C@]2(C)O [3-α-chloroimperialine]
  m2 selective muscarinic antagonism: highly selective m2 muscarinic antagonist
